# Assay results reported in US9169254B2, “Spiroimidazolone derivative” (Chugai Seiyaku Kabushiki Kaisha, priority 2009, dated 2015).
# Target: T1, human PTH1 receptor (Homo sapiens, UniProt Q03431)
# T1 sequence (Q03431 27-593): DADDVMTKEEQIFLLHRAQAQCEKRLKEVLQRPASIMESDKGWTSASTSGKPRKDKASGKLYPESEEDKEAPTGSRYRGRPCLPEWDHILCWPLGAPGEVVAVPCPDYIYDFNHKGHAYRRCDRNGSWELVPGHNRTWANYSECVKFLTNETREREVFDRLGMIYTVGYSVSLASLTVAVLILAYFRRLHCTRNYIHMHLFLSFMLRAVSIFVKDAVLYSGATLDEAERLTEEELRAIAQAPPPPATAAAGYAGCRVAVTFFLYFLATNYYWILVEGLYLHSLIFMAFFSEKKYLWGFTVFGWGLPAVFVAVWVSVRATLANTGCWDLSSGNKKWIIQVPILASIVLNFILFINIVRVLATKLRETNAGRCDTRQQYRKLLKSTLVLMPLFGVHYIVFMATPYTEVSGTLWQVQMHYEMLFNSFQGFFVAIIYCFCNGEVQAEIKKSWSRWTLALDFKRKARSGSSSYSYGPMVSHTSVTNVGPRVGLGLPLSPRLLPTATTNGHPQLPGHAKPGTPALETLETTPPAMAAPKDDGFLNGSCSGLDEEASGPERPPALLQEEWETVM
# Experiment: In vitro cAMP signal activity in HKRK-B7 cells (LLC-PK1 cells overexpressing the human PTH1 receptor)
# Type: cell-based
# Conditions: HKRK-B7 cells; compound at 1×10^−3 M; cAMP produced as percentage of that produced by hPTH(1-34) at 100 nM
row,cAMP production activity (%),Compound
1,35%,"O=C1NC(C2CCCCC2)=NC12CCN(S(=O)(=O)c1cccc3ccccc13)CC2 [Compound 57, 2-cyclohexyl-8-(naphthalene-1-sulfonyl)-1,3,8-triaza-spiro[4.5]dec-1-en-4-one]"
2,39%,"Cc1nc(C)c(S(=O)(=O)N2CCC3(CC2)N=C(C2CCCCC2)NC3=O)s1 [Compound 58, 2-cyclohexyl-8-(2,4-dimethyl-thiazole-5-sulfonyl)-1,3,8-triaza-spiro[4.5]dec-1-en-4-one]"
3,56%,"Cc1noc(C)c1S(=O)(=O)N1CCC2(CC1)N=C(C1CCCCC1)NC2=O [Compound 59, 2-cyclohexyl-8-(3,5-dimethyl-isoxazole-4-sulfonyl)-1,3,8-triaza-spiro[4.5]dec-1-en-4-one]"
4,34%,"O=C1NC(C2CCCCC2)=NC12CCN(S(=O)(=O)c1ccc3c(c1)OCCO3)CC2 [Compound 60, 2-cyclohexyl-8-(2,3-dihydro-benzo[1,4]dioxine-6-sulfonyl)-1,3,8-triaza-spiro[4.5]dec-1-en-4-one]"
5,43%,"O=C1NC(C2CCCCC2)=NC12CCN(S(=O)(=O)CCc1cccc3ccccc13)CC2 [Compound 61, 2-cyclohexyl-8-(2-naphthalen-1-yl-ethanesulfonyl)-1,3,8-triaza-spiro[4.5]dec-1-en-4-one]"
6,56%,"COC(=O)c1sccc1S(=O)(=O)N1CCC2(CC1)N=C(C1CCCCC1)NC2=O [Compound 62, 3-(2-cyclohexyl-4-oxo-1,3,8-triaza-spiro[4.5]dec-1-ene-8-sulfonyl)-thiophene-2-carboxylic acid methyl ester]"
7,51%,"COC(=O)c1cc(C)c(S(=O)(=O)N2CCC3(CC2)N=C(C2CCCCC2)NC3=O)s1 [Compound 63, 5-(2-cyclohexyl-4-oxo-1,3,8-triaza-spiro[4.5]dec-1-ene-8-sulfonyl)-4-methyl-thiophene-2-carboxylic acid methyl ester]"
8,45%,"Cc1cc(S(=O)(=O)N2CCC3(CC2)N=C(C2CCCCC2)NC3=O)c(C)s1 [Compound 64, 2-cyclohexyl-8-(2,5-dimethyl-thiophene-3-sulfonyl)-1,3,8-triaza-spiro[4.5]dec-1-en-4-one]"
9,65%,"O=C1NC(C2CCCCC2)=NC12CCN(S(=O)(=O)c1ccc(Br)s1)CC2 [Compound 65, 8-(5-bromo-thiophene-2-sulfonyl)-2-cyclohexyl-1,3,8-triaza-spiro[4.5]dec-1-en-4-one]"
10,57%,"O=C1NC(c2cccc(C(F)(F)F)c2)=NC12CCN(S(=O)(=O)c1ccc(Cl)s1)CC2 [Compound 66, 8-(5-Chloro-thiophene-2-sulfonyl)-2-(3-trifluoromethyl-phenyl)-1,3,8-triaza-spiro[4.5]dec-1-en-4-one]"
11,53%,"O=C1NC(c2cccc(C(F)(F)F)c2)=NC12CCN(S(=O)(=O)c1ccc3ccccc3c1)CC2 [Compound 67, 8-(naphthalene-2-sulfonyl)-2-(3-trifluoromethyl-phenyl)-1,3,8-triaza-spiro[4.5]dec-1-en-4-one]"
12,51%,"O=C1NC(c2cccc(C(F)(F)F)c2)=NC12CCN(S(=O)(=O)c1cc3ccccc3s1)CC2 [Compound 68, 8-(benzo[b]thiophene-2-sulfonyl)-2-(3-trifluoromethyl-phenyl)-1,3,8-triaza-spiro[4.5]dec-1-en-4-one]"
13,61%,"O=C1NC(c2cccc(C(F)(F)F)c2)=NC12CCN(S(=O)(=O)c1ccc(Br)s1)CC2 [Compound 69, 8-(5-bromo-thiophene-2-sulfonyl)-2-(3-trifluoromethyl-phenyl)-1,3,8-triaza-spiro[4.5]dec-1-en-4-one]"
14,31%,"O=C1NC(C2CCCCC2)=NC12CCCN(S(=O)(=O)c1cccc(Cl)c1)CC2 (stereo not drawn) [Compound 70, 8-(3-Chloro-benzenesulfonyl)-2-cyclohexyl-1,3,8-triaza-spiro[4.6]undec-1-en-4-one]"
15,3.7%,"O=C1NC(C2CCCCC2)=NC12CCCN(S(=O)(=O)c1cccc(Cl)c1)C2 (stereo not drawn) [Compound 71, 7-(3-chloro-benzenesulfonyl)-2-cyclohexyl-1,3,7-triaza-spiro[4.5]dec-1-en-4-one]"
16,1.5%,"O=C1NC(C2CCCCC2)=NC12CCN(S(=O)(=O)c1cccc(Cl)c1)C2 (stereo not drawn) [Compound 72, 7-(3-chloro-benzenesulfonyl)-2-cyclohexyl-1,3,7-triaza-spiro[4.4]non-1-en-4-one]"
17,66%,"Cc1cc(C(=O)N(C)C)ccc1CCS(=O)(=O)N1CCC2(CC1)N=C(c1ccc(Cl)cc1Cl)NC2=O [Compound 73, 4-{2-[2-(2,4-Dichloro-phenyl)-4-oxo-1,3,8-triaza-spiro[4.5]dec-1-ene-8-sulfonyl]-ethyl}-3,N,N-trimethyl-benzamide]"
18,48%,"Cc1cc(C(=O)N(C)C)ccc1CCS(=O)(=O)N1CCC2(CC1)N=C(C(C)(C)C)NC2=O [Compound 74, 4-[2-(2-tert-butyl-4-oxo-1,3,8-triaza-spiro[4.5]dec-1-ene-8-sulfonyl)-ethyl]-3,N,N-trimethyl-benzamide]"
19,75%,"Cc1cc(C(=O)N(C)C)ccc1CCS(=O)(=O)N1CCC2(CC1)N=C(c1ccc(C(F)(F)F)cc1)NC2=O [Compound 75, 3,N,N-trimethyl-4-{2-[4-oxo-2-(4-trifluoromethyl-phenyl)-1,3,8-triaza-spiro[4.5]dec-1-ene-8-sulfonyl]-ethyl}-benzamide]"
20,73%,"Cc1cc(C(=O)N(C)C)ccc1CCS(=O)(=O)N1CCC2(CC1)N=C(C1CCC(C)CC1)NC2=O (stereo not drawn) [Compound 76, 3,N,N-trimethyl-4-{2-[2-(4-methyl-cyclohexyl)-4-oxo-1,3,8-triaza-spiro[4.5]dec-1-ene-8-sulfonyl]-ethyl}-benzamide]"
21,69%,"Cc1cc(C(=O)N(C)C)ccc1CCS(=O)(=O)N1CCC2(CC1)N=C(C1CCCC1)NC2=O [Compound 77, 4-[2-(2-cyclopentyl-4-oxo-1,3,8-triaza-spiro[4.5]dec-1-ene-8-sulfonyl)-ethyl]-3,N,N-trimethyl-benzamide]"
22,31%,"Cc1cc(C(=O)N(C)C)ccc1CCS(=O)(=O)N1CCC2(CC1)N=C(c1c(F)cccc1F)NC2=O [Compound 78, 4-{2-[2-(2,6-difluoro-phenyl)-4-oxo-1,3,8-triaza-spiro[4.5]dec-1-ene-8-sulfonyl]-ethyl}-3,N,N-trimethyl-benzamide]"
23,8.2%,"COc1cccc(OC)c1C1=NC2(CCN(S(=O)(=O)CCc3ccc(C(=O)N(C)C)cc3C)CC2)C(=O)N1 [Compound 79, 4-{2-[2-(2,6-dimethoxy-phenyl)-4-oxo-1,3,8-triaza-spiro[4.5]dec-1-ene-8-sulfonyl]-ethyl}-3,N,N-trimethyl-benzamide]"
24,71%,"COc1cccc(C2=NC3(CCN(S(=O)(=O)CCc4ccc(C(=O)N(C)C)cc4C)CC3)C(=O)N2)c1 [Compound 80, 4-{2-[2-(3-methoxy-phenyl)-4-oxo-1,3,8-triaza-spiro[4.5]dec-1-ene-8-sulfonyl]-ethyl}-3,N,N-trimethyl-benzamide]"
25,57%,"Cc1cc(C(=O)N(C)C)ccc1CCS(=O)(=O)N1CCC2(CC1)N=C(c1cccc(Cl)c1)NC2=O [Compound 81, 4-{2-[2-(3-chloro-phenyl)-4-oxo-1,3,8-triaza-spiro[4.5]dec-1-ene-8-sulfonyl]-ethyl}-3,N,N-trimethyl-benzamide]"
26,65%,"Cc1cc(C(=O)N(C)C)ccc1CCS(=O)(=O)N1CCC2(CC1)N=C(c1cc(C(F)(F)F)cc(C(F)(F)F)c1)NC2=O [Compound 82, 4-{2-[2-(3,5-bis-trifluoromethyl-phenyl)-4-oxo-1,3,8-triaza-spiro[4.5]dec-1-ene-8-sulfonyl]-ethyl}-3,N,N-trimethyl-benzamide]"
27,41%,"Cc1cc(C(=O)N(C)C)ccc1CCS(=O)(=O)N1CCC2(CC1)N=C(Cc1ccccc1)NC2=O [Compound 83, 4-[2-(2-benzyl-4-oxo-1,3,8-triaza-spiro[4.5]dec-1-ene-8-sulfonyl)-ethyl]-3,N,N-trimethyl-benzamide]"
28,51%,"Cc1cccc(C2=NC3(CCN(S(=O)(=O)CCc4ccc(C(=O)N(C)C)cc4C)CC3)C(=O)N2)c1 [Compound 84, 3,N,N-trimethyl-4-[2-(4-oxo-2-m-tolyl-1,3,8-triaza-spiro[4.5]dec-1-ene-8-sulfonyl)-ethyl]-benzamide]"
29,76%,"Cc1cc(C(=O)N(C)C)ccc1CCS(=O)(=O)N1CCC2(CC1)N=C(c1cc(C(F)(F)F)ccc1Cl)NC2=O [Compound 85, 4-{2-[2-(2-chloro-5-trifluoromethyl-phenyl)-4-oxo-1,3,8-triaza-spiro[4.5]dec-1-ene-8-sulfonyl]-ethyl}-3,N,N-trimethyl-benzamide]"
30,66%,"Cc1cc(C(=O)N(C)C)ccc1CCS(=O)(=O)N1CCC2(CC1)N=C(c1cccc(C(F)(F)F)c1)NC2=O [Compound 86, 3,N,N-trimethyl-4-{2-[4-oxo-2-(3-trifluoromethyl-phenyl)-1,3,8-triaza-spiro[4.5]dec-1-ene-8-sulfonyl]-ethyl}-benzamide]"
